Results from patent publication US5179105A, “Phenoxyacetic acid compounds, method for production thereof, and pharmaceutical preparations containing same” (Terumo Kabushiki Kaisha, priority 1990, dated 1993).

What was measured:
Parameters in all cases: species or system Hartley type male guinea pigs
leukotriene D4 [1] = assay: in vitro antagonistic action to leukotriene D4 (LTD4-induced shrinkage of excised ileal segments); settings: guinea pig ileal segments, leukotriene D4 10^-8 M
Experimental: (§1) The IC50 values indicative of the in vitro antagonistic actions of the compounds of this invention to thromboxane A2 and leukotriene D4 were determined by the use of the following test system.
(§2) Bronchial segments and ileal segments excised from Hartley type male guinea pigs 350 to 450 g in body weight were suspended under respective loads of 0.3 g and 0.5 g in Magnus baths containing Tyrode solution and kept exposed to passage therethrough of a mixed gas consisting of 95% of oxygen and 5% of carbon dioxide. After the suspended segments were stabilized for about one hour, U-46619 (equivalent to thromboxane A2, produced by Kaiman K. K.) was added in a concentration of 10^-7 to the bath containing the bronchial segments and leukotriene D4 (produced by Wako Pure Chemicals Co., Ltd.) in a concentration of 10^-8 M to the bath containing the […] contrast to the amounts of shrinkage produced in the bronchial segments and ileal segments, the amounts of shrinkage produced by U-46619 in the bronchial segments and the amounts of shrinkage produced by leukotriene D4 in the ileal segments both in the presence of the compounds of this invention added in varying concentrations were measured. The IC50 values were computed based on the results of the measurement.

thromboxane A2 = assay: in vitro antagonistic action to thromboxane A2 (U-46619-induced shrinkage of excised bronchial segments); settings: guinea pig bronchial segments, U-46619 10^-7; read-out: antagonistic action to Tx A2 (IC50)
Experimental: as §1, §2

leukotriene D4 [2] = assay: in vitro antagonistic action to leukotriene D4 (LTD4-induced shrinkage of excised bronchial segments); settings: guinea pig bronchial segments, leukotriene D4 10^-8 M
Experimental: as §1, §2

SMILES	IC50 (leukotriene D4 [1]) [nM]	IC50 (thromboxane A2) [nM]	IC50 (leukotriene D4 [2]) [nM]
CCCc1c(OCC(=O)Nc2cc(CCCS(=O)(=O)c3ccc(Cl)cc3)ccc2OCC(=O)O)ccc(C(C)=O)c1O	3800	4.5	
CCCc1c(OCCCC(=O)Nc2cc(CCCS(=O)(=O)c3ccc(Cl)cc3)ccc2OCC(=O)O)ccc(C(C)=O)c1O	430	50	70
O=C(O)COc1ccc(CCCS(=O)(=O)c2ccc(Cl)cc2)cc1NC(=O)c1ccc(OCc2ccc3ccccc3n2)cc1	370	26	

Further lines, results first:

IC50 (leukotriene D4 [1]) [nM]	IC50 (thromboxane A2) [nM]	IC50 (leukotriene D4 [2]) [nM]	SMILES
1.3	57	4	O=C(O)COc1ccc(CCCS(=O)(=O)c2ccc(Cl)cc2)cc1NC(=O)c1cccc(OCc2ccc3ccccc3n2)c1 [drawing 21]
	30	150	O=C(O)COc1ccc(CCCS(=O)(=O)c2ccc(Cl)cc2)cc1NC(=O)c1cccc(OCc2ccc3ccccc3n2)c1 [drawing 22]
